Our source for the EC50 values is BindingDB's records for doi:10.7270/Q20V8B80 (The Scripps Research Institute Molecular Screening Center, 2011).

For orientation: EC50 means the concentration at which the effect is half-maximal. High values mean a need for much substance, low ones an effect from little substance.

The target in this assay is T1, Caspase-7 (Homo sapiens, UniProt P55210).
T1 sequence (P55210 whole entry): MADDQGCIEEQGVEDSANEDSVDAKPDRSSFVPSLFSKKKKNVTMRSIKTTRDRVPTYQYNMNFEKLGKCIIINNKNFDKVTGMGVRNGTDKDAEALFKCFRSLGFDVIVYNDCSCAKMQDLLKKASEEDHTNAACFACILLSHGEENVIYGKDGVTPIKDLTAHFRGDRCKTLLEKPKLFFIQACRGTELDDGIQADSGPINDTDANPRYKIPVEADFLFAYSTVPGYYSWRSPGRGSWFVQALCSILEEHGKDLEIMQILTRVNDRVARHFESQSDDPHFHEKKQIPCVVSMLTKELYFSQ
The assay is described as follows: potency of procaspase-7 enzyme activation – biochemical, absorbance, human, dual procaspase-3/-7 activator project, dose response (AID 504330).

Turning to `COc1ccccc1-n1c(O)c2n(-c3ccccc3)[nH]c(C(=O)c3ccccc3)c-2c1=O`, the EC50 is > 85.3 µM.
The value for `COC(=O)c1[nH]n(-c2ccc(Cl)cc2)c2c(O)n(-c3ccccc3OC)c(=O)c1-2` [1-(4-Chloro-phenyl)-5-(2-methoxy-phenyl)-4,6-dioxo-1,3a,4,5,6,6a-hexahydro-pyrrolo[3,4-c]pyrazole-3-carboxylic acid methyl ester] was > 85.3 µM; that for `O=C(c1ccccc1)c1[nH]n(-c2ccccc2)c2c(O)n(-c3ccccc3)c(=O)c1-2` [3-benzoyl-1,5-diphenyl-3a,6a-dihydropyrrolo[3,4-c]pyrazole-4,6-dione] was > 85.3 µM; that for `CCOC(=O)C(C#N)C=Nc1cc(OC)ccc1OC` (configuration not stated) [(E)-2-Cyano-3-(2,5-dimethoxy-phenylamino)-acrylic acid ethyl ester] was > 85.3 µM.
As for `C=CC=Nc1c(Cl)c(O)n(-c2cccc(Cl)c2Cl)c1O` [MLS000533809], the EC50 is > 85.3 µM.
`Cc1[nH]nc2c1C(c1c[nH]c3ccccc13)C(C#N)C(=N)O2` (configuration not stated) [MLS001030009] gave an EC50 of 27.8 µM.
Consider `CCOc1ccc(NC=C2C(=O)CC(c3ccco3)CC2=O)cc1` (configuration not stated) [SMR000268302], for which the EC50 is > 85.3 µM.
